Data published in patent publication US6297354A, “Pentapeptide LHRH antagonists” (Abbott Laboratories, priority 1999, dated 2001).
Where a SMILES comes first, the peptide text is derived from it. [ ]: non-standard residue; d: D form. The star is where a group is joined. Propanoyl(3-(4-F-phenyl)) = O=C(CCc1ccc(F)cc1)*; NH(2-pyrrolidin-1-ylethyl) = C1CCN(CCN*)C1; dBip = N[C@H](Cc1ccc(-c2ccccc2)cc1)C(=O)O; 1Nal = N[C@@H](Cc1cccc2ccccc12)C(=O)O; d1Nal = N[C@H](Cc1cccc2ccccc12)C(=O)O; NMeY = CN[C@@H](Cc1ccc(O)cc1)C(=O)O; Tic = O=C(O)[C@@H]1Cc2ccccc2CN1; NMeL = CN[C@@H](CC(C)C)C(=O)O; Nicotinoyl = O=C(c1cccnc1)*; Sar = CNCC(=O)O

target: T1, LH release from rat pituitary cells (Rattus norvegicus, UniProt P30969); test: in vitro inhibition of LH release from rat pituitary cells (pA2, vs agonist leuprolide); format: cell-based; details: negative logarithm of antagonist concentration required to shift the response curve produced by agonist leuprolide to two-fold higher concentration
T1 sequence (P30969 1-327): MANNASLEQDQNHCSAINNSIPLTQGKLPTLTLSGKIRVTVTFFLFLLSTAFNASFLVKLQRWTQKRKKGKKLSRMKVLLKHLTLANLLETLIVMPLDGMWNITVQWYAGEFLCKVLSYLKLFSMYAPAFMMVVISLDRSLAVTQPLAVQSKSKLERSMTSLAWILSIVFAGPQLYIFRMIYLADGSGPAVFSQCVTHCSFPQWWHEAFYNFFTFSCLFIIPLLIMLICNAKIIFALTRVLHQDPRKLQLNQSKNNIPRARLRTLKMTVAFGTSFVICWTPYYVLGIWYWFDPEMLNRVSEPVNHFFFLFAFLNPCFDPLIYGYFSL
Protocol: Representative compounds of the present invention were evaluated in vitro for inhibition of LH release from rat pituitary cells (pA2). Methods for the assay procedures are described by F. Haviv, et al. J. Med. Chem., 32:2340-2344 (1989). Values of pA2 are the negative logarithms of the concentration of the particular antagonist test compound required to shift the response curve produced by the agonist leuprolide to two-fold higher concentration. Typically values of 6.0 or greater are indicative of good LHRH antagonist potency, with values of 7.0 or greater being preferred. Leuprolide LHRH agonist, disclosed and claimed in U.S. Pat. No. 4,005,063, has the structure 5-oxo-Pro1^1 -His^2 […] -Ser^4 -Tyr^5 -D-Leu^6 -Leu^7 -Arg^8 -Pro^9 -NHEt.

| SMILES | LHRH Antagonist Activity (pA2) |
| --- | --- |
| CC(C)C[C@H](NC(=O)[C@@H](CCCCNC(=O)c1cccnc1)NC(=O)[C@H](Cc1ccc(O)cc1)N(C)C(=O)[C@H](CO)NC(=O)[C@@H](Cc1cccc2ccccc12)NC(=O)CCc1ccc(F)cc1)C(=O)NCCN1CCCC1 [Example 1, 4-F-Phenylpropionyl-D1Nal-Ser-NMeTyr-DLys(Nic)-Leu-NH--(CH2)2 -(1-pyrrolidine)] ({Propanoyl(3-(4-F-phenyl))}-[d1Nal]S[NMeY][dK](Nicotinoyl)L-{NH(2-pyrrolidin-1-ylethyl)}) | 9.91 |
| CC(C)C[C@H](NC(=O)CNC(=O)[C@H](Cc1ccc(O)cc1)N(C)C(=O)[C@H](CO)NC(=O)[C@@H](Cc1cccc2ccccc12)NC(=O)CCc1ccc(F)cc1)C(=O)NCCN1CCCC1 [Example 2, 4-F-Phenylpropionyl-D1Nal-Ser-NMeTyr-Gly-Leu-NH--(CH2)2 -(1pyrrolidine)] ({Propanoyl(3-(4-F-phenyl))}-[d1Nal]S[NMeY]GL-{NH(2-pyrrolidin-1-ylethyl)}) | 9.14 |
| CC(C)C[C@H](NC(=O)[C@@H](CCCCNC(=O)c1cccnc1)NC(=O)CN(C)C(=O)[C@H](CO)NC(=O)[C@@H](Cc1cccc2ccccc12)NC(=O)CCc1ccc(F)cc1)C(=O)NCCN1CCCC1 [Example 3, 4-F-Phenylpropionyl-D1Nal-Ser-Sar-DLys(Nic)-Leu-NH--(CH2)2 (1-pyrrolidine)] ({Propanoyl(3-(4-F-phenyl))}-[d1Nal]S[Sar][dK](Nicotinoyl)L-{NH(2-pyrrolidin-1-ylethyl)}) | 7.66 |
| CC(C)C[C@H](NC(=O)[C@@H](CCCCNC(=O)c1cccnc1)NC(=O)[C@H](Cc1ccc(O)cc1)N(C)C(=O)CNC(=O)[C@@H](Cc1cccc2ccccc12)NC(=O)CCc1ccc(F)cc1)C(=O)NCCN1CCCC1 [Example 6, 4-F-Phenylpropionyl-D1Nal-Gly-NMeTyr-DLys(Nic)-Leu-NH--(CH2)2 -(1-pyrrolidine)] ({Propanoyl(3-(4-F-phenyl))}-[d1Nal]G[NMeY][dK](Nicotinoyl)L-{NH(2-pyrrolidin-1-ylethyl)}) | 8.90 |
| CC(C)C[C@H](NC(=O)[C@@H](CCCCNC(=O)c1cccnc1)NC(=O)[C@H](Cc1ccc(O)cc1)NC(=O)[C@H](CO)NC(=O)[C@@H](Cc1cccc2ccccc12)NC(=O)CCc1ccc(F)cc1)C(=O)NCCN1CCCC1 [Example 7, 4-F-Phenylpropiopyl-D1Nal-Ser-Tyr-DLys(Nic)-Leu-NH--(CH2)2 -(1-pyrrolidine)] ({Propanoyl(3-(4-F-phenyl))}-[d1Nal]SY[dK](Nicotinoyl)L-{NH(2-pyrrolidin-1-ylethyl)}) | 9.73 |
| CC(C)C[C@@H](C(=O)NCCN1CCCC1)N(C)C(=O)CNC(=O)[C@H](Cc1ccc(O)cc1)N(C)C(=O)[C@H](CO)NC(=O)[C@@H](Cc1cccc2ccccc12)NC(=O)CCc1ccc(F)cc1 [Example 8, 4-F-Phenylpropionyl-D1Nal-Ser-NMeTyr-Gly-NMeLeu-NH--(CH2)2 -(1Pyrrolidine)] ({Propanoyl(3-(4-F-phenyl))}-[d1Nal]S[NMeY]G[NMeL]-{NH(2-pyrrolidin-1-ylethyl)}) | 9.00 |
| CC(C)C[C@@H](C(=O)NCCN1CCCC1)N(C)C(=O)CNC(=O)[C@H](Cc1ccc(O)cc1)N(C)C(=O)CNC(=O)[C@@H](Cc1cccc2ccccc12)NC(=O)CCc1ccc(F)cc1 [Example 9, 4-F-Phenylpropionyl-D1Nal-Gly-NMeTyr-Gly-NMeLeu-NH--(CH2)2 -(1-pyrrolidine)] ({Propanoyl(3-(4-F-phenyl))}-[d1Nal]G[NMeY]G[NMeL]-{NH(2-pyrrolidin-1-ylethyl)}) | 7.72 |
| CC(C)C[C@H](NC(=O)[C@@H](CCCCNC(=O)c1cccnc1)NC(=O)[C@H](Cc1ccc(O)cc1)N(C)C(=O)[C@H](CO)NC(=O)[C@@H](Cc1c[nH]c2ccccc12)NC(=O)CCc1ccc(F)cc1)C(=O)NCCN1CCCC1 [Example 10, 4-F-Phenylpropionyl-DTrp-Ser-NMeTyr-DLys(Nic)-Leu-NH--(CH2)2 -(1-pyrrolidine)] ({Propanoyl(3-(4-F-phenyl))}-[dW]S[NMeY][dK](Nicotinoyl)L-{NH(2-pyrrolidin-1-ylethyl)}) | 8.69 |
| CC(C)C[C@H](NC(=O)[C@@H](CCCCNC(=O)c1cccnc1)NC(=O)[C@H](Cc1ccc(O)cc1)N(C)C(=O)[C@H](CO)NC(=O)[C@@H](Cc1ccc(-c2ccccc2)cc1)NC(=O)CCc1ccc(F)cc1)C(=O)NCCN1CCCC1 [Example 11, 4-F-Phenylpropionyl-DBiphe-Ser-NMeTyr-DLys(Nic)-Leu-NH--(CH2)2-(1-pyrrolidine)] ({Propanoyl(3-(4-F-phenyl))}-[dBip]S[NMeY][dK](Nicotinoyl)L-{NH(2-pyrrolidin-1-ylethyl)}) | 7.62 |
| CC(C)C[C@H](NC(=O)[C@@H](CCCCNC(=O)c1cccnc1)NC(=O)[C@H](Cc1ccc(O)cc1)N(C)C(=O)[C@H](CO)NC(=O)[C@H](Cc1cccc2ccccc12)NC(=O)CCc1ccc(F)cc1)C(=O)NCCN1CCCC1 [Example 14, 4-F-Phenylpropionyl-1Nal-Ser-NMeTyr-DLys(Nic)-Leu-NH--(CH2)2 -(1-pyrrolidine)] ({Propanoyl(3-(4-F-phenyl))}-[1Nal]S[NMeY][dK](Nicotinoyl)L-{NH(2-pyrrolidin-1-ylethyl)}) | 8.68 |
| CC(C)C[C@H](NC(=O)[C@@H](Cc1ccccc1)NC(=O)[C@H](Cc1ccc(O)cc1)N(C)C(=O)[C@H](CO)NC(=O)[C@@H](Cc1c[nH]c2ccccc12)NC(=O)CCc1ccc(F)cc1)C(=O)NCCN1CCCC1 [Example 15, 4-F-Phenylpropionyl-DTrp-Ser-NMeTyr-DPhe-Leu-NH--(CH2)2 -(1-pyrrolidine)] ({Propanoyl(3-(4-F-phenyl))}-[dW]S[NMeY][dF]L-{NH(2-pyrrolidin-1-ylethyl)}) | 8.59 |
| CC(C)C[C@H](NC(=O)[C@@H](CCCCNC(=O)c1cccnc1)NC(=O)[C@H](Cc1ccc(O)cc1)N(C)C(=O)[C@@H]1CCCN1C(=O)[C@@H](Cc1cccc2ccccc12)NC(=O)CCc1ccc(F)cc1)C(=O)NCCN1CCCC1 [Example 16, 4-F-Phenylpropionyl-D1Nal-Pro-NMeTyr-DLys(Nic)-Leu-NH--(CH2)2 -(1-Pyrrolidine)] ({Propanoyl(3-(4-F-phenyl))}-[d1Nal]P[NMeY][dK](Nicotinoyl)L-{NH(2-pyrrolidin-1-ylethyl)}) | 8.71 |
| CC(C)C[C@H](NC(=O)[C@@H](CCCCNC(=O)c1cccnc1)NC(=O)[C@@H]1Cc2ccccc2CN1C(=O)[C@H](CO)NC(=O)[C@@H](Cc1cccc2ccccc12)NC(=O)CCc1ccc(F)cc1)C(=O)NCCN1CCCC1 [Example 17, 4-F-Phenylpropionyl-D1Nal-Ser-Tic-DLys(Nic)-Leu-NH--(CH2)2 -( 1-pyrrolidine)] ({Propanoyl(3-(4-F-phenyl))}-[d1Nal]S[Tic][dK](Nicotinoyl)L-{NH(2-pyrrolidin-1-ylethyl)}) | 9.32 |
| CC(C)C[C@H](NC(=O)[C@@H](CCCCNC(=O)c1cccnc1)NC(=O)[C@H](Cc1ccc(O)cc1)N1CC[C@H](NC(=O)[C@@H](Cc2cccc3ccccc23)NC(=O)CCc2ccc(F)cc2)C1=O)C(=O)NCCN1CCCC1 [Example 19, 4-F-Phenylpropionyl-D1Nal-6,7[2-(S-3-amino-2-oxo-pyrrolidin-1-yl)-S-2-(para-hydroxyl)phenylacetyl]-DLys(Nic)-Leu-NH--(CH2)2-(1-pyrrolidine)] | 7.89 |
